As a reminder, the melting point is the temperature, or range, at which the solid turns liquid.

Consider `CCCCCCCCCCCCOc1ccccc1-c1ccccc1OCCCCCCCCCCCC` [BDD-BBPh, 2,2′-Bis(dodecyloxy)-1,1′-biphenyl], for which the melting point fell in the range of 33 to 35 °C.

The values above are taken from patent publication US9222928B2, “Biphenol ether compounds as markers for liquid hydrocarbons and other fuels and oils” (Dow Global Technologies LLC, priority 2011, dated 2015).
